The structures appear in SMILES notation. Read-outs that look alike come from different tables or passages of the source. A value given as a limit tells only on which side of the number the result lay.

For this assay, the system named is HBV rcDNA. As to the kind of experiment: HepDE19 assay with bDNA quantitation of HBV rcDNA. The class given is cell-based, hepatitis B virus. Here is the method: HepDE19 Assay with bDNA Quantitation of HBV rcDNA:
HepDE19 cell culture system is a HepG2 (human hepatocarcinoma) derived cell line that supports HBV DNA replication and cccDNA formation in a tetracycline (Tet)-regulated manner and produces HBV rcDNA and a detectable reporter molecule dependent on the production and maintenance of cccDNA (Guo, et al., 2007, J. Virol. 81:12472-12484).
HepDE19 (50,000 cells/well) were plated in 96-well collagen-coated tissue-culture treated microtiter plates in DMEM/F12 medium supplemented with 10% fetal bovine serum, 1% penicillin-streptomycin and 1 μg/mL tetracycline and incubated in a humidified incubator at 37° C. and 5% CO2 overnight. Next day, the cells were switched to fresh medium without tetracycline and incubated for 4 hours at 37° C. and 5% CO2. The cells were treated with fresh Tet-free medium with compounds at concentrations starting at 25 μM and a serial, ½ log, 8-point, titration series in duplicate. The final DMSO concentration in the assay was 0.5%. The plates were incubated for 7 days in a humidified incubator at 37° C. and 5% CO2. Following a 7 day-incubation, the level of rcDNA present in the inhibitor-treated wells was measured using a Quantigene 2.0 bDNA assay kit (Affymetrix, Santa Clara, Calif.) with HBV specific custom probe set and manufacturers instructions. Concurrently, the effect of compounds on cell viability was assessed using replicate plates, plated at a density of 5,000 cells/well and incubated for 4 days, to determine the ATP content as a measure of cell viability using the cell-titer glo reagent (CTG; Promega Corporation, Madison, Wis.) as per manufacturer's instructions. The plates were read using a Victor luminescence plate reader (PerkinElmer Model 1420 Multilabel counter) and the relative luminescence units (RLU) data generated from each well was calculated as % inhibition of the untreated control wells and analyzed using XL-Fit module in Microsoft Excel to determine EC50 and EC90 (bDNA) and CC50 (CTG) values using a 4-parameter curve fitting algorithm.
Representative compounds of the invention were tested for their abilities to inhibit formation of relaxed circular DNA (rcDNA) in a HepDE19 assay, as described elsewhere herein.

The mark [1] stands for this setting: HepDE19 cells, Tet-free medium, 7 day-incubation, rcDNA measured by Quantigene 2.0 bDNA assay, top concentration 25 μM; read-out: DE-19 bDNA EC50.
Where [2] appears, read: read-out: DE-19 bDNA EC50; HepDE19 cells, Tet-free medium, 7 day-incubation, rcDNA measured by Quantigene 2.0 bDNA assay, top concentration 25 μM.
Where [3] appears, read: Hepatitis B virus, HepDE19, 168 h, HepDE19 cells, Tet-free medium, 7 day-incubation, rcDNA measured by Quantigene 2.0 bDNA assay, top concentration 25 μM; read-out: DE-19 bDNA EC50.

The term EC50 denotes the concentration at which the effect is half-maximal. Take `Cn1cnc(COC(=O)NC2CCc3c2cn(C)c3C(=O)Nc2ccc(F)c(Cl)c2)n1` (single isomer, unassigned) [Compound 26, (1-Methyl-1H-1,2,4-triazol-3-yl)methyl (1-((3-chloro-4-fluorophenyl)carbamoyl)-2-methyl-2,4,5,6-tetrahydrocyclopenta[c]pyrrol-4-yl)carbamate]: the EC50 under setting [1] was 50 nM.
With `CCn1cc2c(c1C(=O)Nc1ccc(F)c(Cl)c1)CCC2NC(=O)OCc1ccn(C)n1` (single isomer, unassigned) [Compound 27, (1-Methyl-1H-pyrazol-3-yl)methyl (1-((3-chloro-4-fluorophenyl)carbamoyl)-2-ethyl-2,4,5,6-tetrahydrocyclopenta[c]pyrrol-4-yl)carbamate], under setting [1], the EC50 was found to be 1500 nM.
Turning to `CCn1cc2c(c1C(=O)Nc1ccc(F)c(Cl)c1)CCC2NC(=O)OCc1ccn(C)n1` (single isomer, unassigned) [Compound 28, (1-Methyl-1H-pyrazol-3-yl)methyl (1-((3-chloro-4-fluorophenyl)carbamoyl)-2-ethyl-2,4,5,6-tetrahydrocyclopenta[c]pyrrol-4-yl)carbamate], the EC50 under setting [1] was 230 nM.
For the molecule `COC(=O)NC1CCCc2c1cn(C)c2C(=O)Nc1ccc(F)c(Cl)c1` (single isomer, unassigned) [Compound 29, Methyl (1-((3-chloro-4-fluorophenyl)carbamoyl)-2-methyl-4,5,6,7-tetrahydro-2H-isoindol-4-yl)carbamate], under setting [2], the EC50 is 470 nM.
Take `Cn1cc2c(c1C(=O)Nc1ccc(F)c(Cl)c1)CCCC2NS(=O)(=O)C1CC1` (single isomer, unassigned) [Compound 30, N-(3-Chloro-4-fluorophenyl)-4-(cyclopropanesulfonamido)-2-methyl-4,5,6,7-tetrahydro-2H-isoindole-1-carboxamide]: the concentration for a half-maximal effect (EC50) under setting [1] was 2100 nM.
With `Cn1ccc(COC(=O)NC2CCCc3c2cn(C)c3C(=O)Nc2ccc(F)c(Cl)c2)n1` (single isomer, unassigned) [Compound 31, (1-Methyl-1H-pyrazol-3-yl)methyl (1-((3-chloro-4-fluorophenyl)carbamoyl)-2-methyl-4,5,6,7-tetrahydro-2H-isoindol-4-yl)carbamate], the EC50 under setting [3] is 500 nM.
As for `Cn1cnc(COC(=O)NC2CCCc3c2cn(C)c3C(=O)Nc2ccc(F)c(Cl)c2)n1` (single isomer, unassigned) [Compound 33, (1-Methyl-1H-1,2,4-triazol-3-yl)methyl (1-((3-chloro-4-fluorophenyl)carbamoyl)-2-methyl-4,5,6,7-tetrahydro-2H-isoindol-4-yl)carbamate], under setting [3], the EC50 was found to be 30 nM.
For `Cn1cc2c(c1C(=O)Nc1ccc(F)c(Cl)c1)CCC2NC(=O)OCc1ncco1` (single isomer, unassigned) [Compound 34, Oxazol-2-ylmethyl (1-((3-chloro-4-fluorophenyl)carbamoyl)-2-methyl-2,4,5,6-tetrahydrocyclopenta[c]pyrrol-4-yl)carbamate], under setting [1], the EC50 stood at 80 nM.
For the molecule `Cn1cc2c(c1C(=O)Nc1ccc(F)c(Cl)c1)CCC2NC(=O)OCc1ncco1` (single isomer, unassigned) [Compound 35, Oxazol-2-ylmethyl (1-((3-chloro-4-fluorophenyl)carbamoyl)-2-methyl-2,4,5,6-tetrahydrocyclopenta[c]pyrrol-4-yl)carbamate], the EC50 under setting [1] was determined as 1800 nM.
The same measure, in the same setting: next, `Cn1cc2c(c1C(=O)Nc1ccc(F)c(Cl)c1)CCC2NC(=O)OCc1cnco1` (single isomer, unassigned) [Compound 36, Oxazol-5-ylmethyl (1-((3-chloro-4-fluorophenyl)carbamoyl)-2-methyl-2,4,5,6-tetrahydrocyclopenta[c]pyrrol-4-yl)carbamate]: 20 nM.
On the same count and under the same terms, next, `Cn1cc2c(c1C(=O)Nc1ccc(F)c(Cl)c1)CCC2NC(=O)OCc1cnco1` (single isomer, unassigned) [Compound 37, Oxazol-5-ylmethyl (1-((3-chloro-4-fluorophenyl)carbamoyl)-2-methyl-2,4,5,6-tetrahydrocyclopenta[c]pyrrol-4-yl)carbamate]: 2600 nM.
With `COC(=O)NC1CCn2c(C(=O)Nc3ccc(F)c(Cl)c3)ccc21` (single isomer, unassigned) [Compound 38, Methyl (5-((3-chloro-4-fluorophenyl)carbamoyl)-2,3-dihydro-1H-pyrrolizin-1-yl)carbamate], the EC50 under setting [2] was 4700 nM.
Same read-out and setting: under `COC(=O)NC1CCn2c(C(=O)Nc3ccc(F)c(Cl)c3)ccc21` (single isomer, unassigned) [Compound 39, Methyl (5-((3-chloro-4-fluorophenyl)carbamoyl)-2,3-dihydro-1H-pyrrolizin-1-yl)carbamate] stands 15000 nM.
Take `Cn1cnc(COC(=O)NC2CCn3c(C(=O)Nc4ccc(F)c(Cl)c4)ccc32)n1` (single isomer, unassigned) [Compound 40, (1-Methyl-1H-1,2,4-triazol-3-yl)methyl (5-((3-chloro-4-fluorophenyl)carbamoyl)-2,3-dihydro-1H-pyrrolizin-1-yl)carbamate]: under setting [1], the EC50 worked out at 6600 nM.
Same read-out and setting: under `Cn1cnc(COC(=O)NC2CCn3c(C(=O)Nc4ccc(F)c(Cl)c4)ccc32)n1` (single isomer, unassigned) [Compound 41, (1-Methyl-1H-1,2,4-triazol-3-yl)methyl (5-((3-chloro-4-fluorophenyl)carbamoyl)-2,3-dihydro-1H-pyrrolizin-1-yl)carbamate] stands at least 25000 nM; under `Cn1cnc(COC(=O)NC2CCc3c2c(Br)n(C)c3C(=O)Nc2ccc(F)c(Cl)c2)n1` (single isomer, unassigned) [Compound 47, (1-Methyl-1H-1,2,4-triazol-3-yl)methyl (3-bromo-1-((3-chloro-4-fluorophenyl)carbamoyl)-2-methyl-2,4,5,6-tetrahydrocyclopenta[c]pyrrol-4-yl)carbamate], 3100 nM; under `Cn1cnc(COC(=O)NC2CCc3c2c(Br)n(C)c3C(=O)Nc2ccc(F)c(Cl)c2)n1` (single isomer, unassigned) [Compound 48, (1-Methyl-1H-1,2,4-triazol-3-yl)methyl (3-bromo-1-((3-chloro-4-fluorophenyl)carbamoyl)-2-methyl-2,4,5,6-tetrahydrocyclopenta[c]pyrrol-4-yl)carbamate], 10 nM.
Regarding `Cn1cc2c(c1C(=O)Nc1ccc(F)c(Cl)c1)CCC2NC(=O)OCCC#N` (single isomer, unassigned) [Compound 49, 2-Cyanoethyl (1-((3-chloro-4-fluorophenyl)carbamoyl)-2-methyl-2,4,5,6-tetrahydrocyclopenta[c]pyrrol-4-yl)carbamate], under setting [1], the EC50 amounted to 60 nM.
The same measure, in the same setting: next, `Cn1cc2c(c1C(=O)Nc1ccc(F)c(Cl)c1)CCC2NC(=O)OCCC#N` (single isomer, unassigned) [Compound 50, 2-Cyanoethyl (1-((3-chloro-4-fluorophenyl)carbamoyl)-2-methyl-2,4,5,6-tetrahydrocyclopenta[c]pyrrol-4-yl)carbamate]: 3000 nM; `Cn1cnc(COC(=O)NC2CCc3c2c(Cl)n(C)c3C(=O)Nc2ccc(F)c(Cl)c2)n1` (single isomer, unassigned) [Compound 51, (1-Methyl-1H-1,2,4-triazol-3-yl)methyl (3-chloro-1-((3-chloro-4-fluorophenyl)carbamoyl)-2-methyl-2,4,5,6-tetrahydrocyclopenta[c]pyrrol-4-yl)carbamate]: 10 nM.
Still for that read-out and setting: under `Cn1cnc(COC(=O)NC2CCc3c2c(Cl)n(C)c3C(=O)Nc2ccc(F)c(Cl)c2)n1` (single isomer, unassigned) [Compound 52, (1-Methyl-1H-1,2,4-triazol-3-yl)methyl (3-chloro-1-((3-chloro-4-fluorophenyl)carbamoyl)-2-methyl-2,4,5,6-tetrahydrocyclopenta[c]pyrrol-4-yl)carbamate] stands 310 nM; under `Cn1cc2c(c1C(=O)Nc1ccc(F)c(Cl)c1)CCC2NC(=O)OCC1(C(N)=O)CC(F)(F)C1` (single isomer, unassigned) [Compound 55, (1-Carbamoyl-3,3-difluorocyclobutyl)methyl(1-((3-chloro-4-fluorophenyl)carbamoyl)-2-methyl-2,4,5,6-tetrahydrocyclopenta[c]pyrrol-4-yl)carbamate], 4400 nM.

For the origin of these results see patent US11566002B2, “Substituted tetrahydrocyclopenta[C]pyrroles, substituted dihydropyrrolizines, analogues thereof, and methods using same” (priority 2018, dated 2023).
